Test [1] relates to Piezo1 currents in N2A cells. The experiment in a line: Pillar array patch-clamp analysis of mechanotransduction in N2A cells. The format is cell-based. The procedure: Whole-cell, patch-clamp recordings were conducted as previously described 5-7, using patch pipettes with a tip resistance of 3-6 MΩ, filled with a solution of: 110 mM KCl, 10 mM NaCl, 1 mM MgCl2, 1 mM EGTA and 10 mM HEPES, adjusted to pH 7.3 with KOH. (For experiments on DRG neurons 10 mM QX-314 was added to the pipette to block voltage-gated sodium channels 8 Extracellular solutions contained 140 mM NaCl, 4 mM KCl, 2 mM CaCl2, 1 mM MgCl2, 4 mM glucose, 10 mM HEPES, adjusted to pH 7.4 with NaOH. A Zeiss 200 inverted microscope and an EPC-10 amplifier in combination with Patchmaster software was used, data was analyzed using Fitmaster software (HEKA Electronik GmbH, Germany). Pipette and membrane capacitance were compensated using the auto function of Patchmaster, series resistance was compensated by at least 60% to minimize voltage errors. Mechanical stimuli were applied using a polished glass probe driven by the MM3A micromanipulator (Kleindiek Nanotechnik, Germany). Mechanical stimuli were applied by either; indenting the cell soma or by culturing cells on elastomeric pillar arrays and applying the stimulus to the cell-substrate interface by deflecting an individual pilus.
Briefly, elastomeric pillar arrays of defined dimensions were cast in PDMS with an elasticity of 2 MPa. Cells cultured on these arrays were monitored using whole-cell patch-clamp whilst a glass probe was used to apply repeated deflections (of differing magnitudes) to an individual pilus directly beneath the cell. Images were obtained of the pilus before and after deflection and images were analyzed off-line to determine the exact deflection for each data point. Images were obtained using a 40×LD objective and a CoolSNAP EZ CCD camera. Images were analyzed off-line using Igor software (WaveMetrics, USA). The collection of stimulus-response data using pillar arrays generates data sets with variation in both x and y. In order to effectively compare groups for each cell studied we binned response data by stimulus size in the following bins: 0-10, 10-50, 50-100, 100-250, 250-500, 500-1000. For each cell, current amplitudes within each bin were averaged and then bins averaged between cells—we then tested for significance by testing whether the current amplitude for a given stimulation range (i.e. bin) differed between samples. A power analysis was used to determine that moderate to strong effects between samples could be detected with a sample size >4. Data sets were in excess of this number. To distinguish mechanoreceptors from nociceptors in the mixed population of acutely prepared DRG neurons, the shape of the generated action potential (AP) was used. […] For quantitative analysis of mechanosensitivity we measured responses in the most sensitive sub-population of mechanoreceptors, previously defined as Typell mechanoreceptors (Poole et al., 2014). This population was identified as those cells with APs lacking a hump in the falling phase and a full width at half maximum (FWHM) of at least 0.7 ms, (average, ±s.e.m.: 0.9±0.04 ms)
Endogenously expressed STOML3 in N2A cells is required to maintain Piezo channel sensitivity to membrane deflection^2. By precisely deflecting defined areas of the membrane-substrate interface using a pillar array we could activate Piezo1 currents in N2A cells with displacements ranging from 100-1000 nm (FIG. 2a). Both OB-1 and OB-2 reduced the sensitivity of mechanosensitive currents to pillar deflection (FIG. 2b). […]
(The patch-clamp technique gives a direct electrical read-out from membranes.)

Another test deals with T1, STOML3-FLAG (Mus musculus, UniProt Q6PE84).
T1 construct: expressed in transfected cells; host or cells: N2A (Neuro2A)
The experiment in a line: dSTORM imaging of STOML3-FLAG cluster size at the plasma membrane of N2A cells. The test is classed as cell-based. As to conditions: pre-incubation three hours, 20 μM, vs vehicle. The procedure:
N2A cells were cultured on EHS-Laminin coated precision coverglass, thickness 0.17, then transfected with a plasmid encoding STOML3-FLAG. After overnight incubation, cells were treated for 3 hours with 20 μM compound, or DMSO as a control. Cells were then fixed (15 min, 4% PFA), permeabilized (0.05% TritonX 100, 5 min) and blocked (phosphate buffered saline (PBS) containing 10% fetal goat serum (FGS), 37° C., 1 hr). Cell were labeled with mouse anti-FLAG antibody (M2 clone, 1:100 in PBS containing 10% FGS). The secondary antibody was an Alexa647-conjugated, goat anti-mouse antibody (1:100 in PBS plus 10% FGS, 1 h, 37° C.). After staining, the samples were fixed again. […]
For analysis of STOML3 domain size, all reconstructed images were blinded and then from each imaged cell 100 individual dots were cropped (size: 20×20 pixels). A 2D-Gaussian fit was calculated using the Igor software (WaveMetrics, USA). […] After domain sizes had been determined for each cell, images were unblinded and then normalized against the average domain size for control cells prepared and imaged on the same day.
We next determined whether OB-1 and OB-2 modulation of STOML3 oligomerization state influences clustering of the protein in the plasma membrane. […]

Consider two compounds from patent US11384071B2, “Inhibitors of mechanotransduction to treat pain and modulate touch perception” (Max-Delbrück-Centrum für Molekulare Medizin in der …, priority 2016, dated 2022).

In general, Hill coefficient refers to the slope factor of the fitted curve. As a reminder, the IC50 is the point on the concentration scale where inhibition reaches its midpoint.

T1 sequence (Q6PE84 whole entry): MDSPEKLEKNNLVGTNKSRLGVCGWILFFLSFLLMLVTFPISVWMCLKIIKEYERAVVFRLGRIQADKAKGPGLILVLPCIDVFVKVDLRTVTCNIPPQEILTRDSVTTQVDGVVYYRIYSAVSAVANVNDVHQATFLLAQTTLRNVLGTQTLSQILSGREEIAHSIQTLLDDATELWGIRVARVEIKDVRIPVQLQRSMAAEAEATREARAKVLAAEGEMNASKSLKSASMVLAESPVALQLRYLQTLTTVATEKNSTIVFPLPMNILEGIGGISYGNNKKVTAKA

Consider `CCOC(=O)c1c(-c2ccccc2)oc2ccc(Oc3c([N+](=O)[O-])ncn3C)cc12` [OB-1, Ethyl 5-((1-methyl-4-nitro-1H-imidazol-5-yl)oxy)-2-phenylbenzofuran-3-carboxylate], for which the “sensitivity of mechanosensitive currents to pillar deflection” value in test [1] was “reduced”. Further, the “pre-incubation time for maximal reduction of Piezo1 current amplitudes” value in test [1] (20 μM OB-1) is 3 h. In addition, the Hill coefficient in test [1] (Piezo1 current) was found to be 0.6. The IC50 in test [1] (calculated from concentration dependence, read-out: IC50 on mechanically-activated (Piezo1) currents) was 10 nM. Moreover, the STOML3-FLAG cluster size result on STOML3-FLAG is given as “significantly reduced”.

In the case of `Cc1ccnc(NC(=O)CSc2nnc3c4ccccc4n(Cc4ccccc4)c3n2)c1` [OB-2], in test [1], the “sensitivity of mechanosensitive currents to pillar deflection” value was “reduced”. Moreover, at STOML3-FLAG, the STOML3-FLAG cluster size result was “significantly reduced”.
